# In US8080659B2, “CXCR4 antagonists including diazine and triazine structures for the treatment of medical disorders” (Emory University, priority 2006, dated 2011):
# pEC50: −log10 of the molar value.
# Columns and labels:
# CXCR4 [1] = experiment: CXCR4 protein levels after treatment of cells; assay type: cell-based, human
# CXCR4 [2] = target: T1, CXCR4 (Homo sapiens, UniProt P61073); experiment: SDF-1-stimulated Erk1/2 phosphorylation; assay type: cell-based; parameters: endogenous in cells; host or cells: MDA-MB-231; settings: data not shown
# Description: (§1) CXCR4/SDF-1 interaction activates PI3K/Akt and Ras/Raf/MEK/Erk pathways in a Gαi protein (PTX-sensitive)-dependent manner. Experiments were conducted to determine the effect of blocking CXCR4/SDF-1 interaction by either TN14003 or AMD3100 at different concentrations (0, 0.01, 0.1, 1, 10, 100, 1000 nM) on phosphorylations of Akt and Erk1/2 signaling.
# CXCR4 [3] = target: T1, CXCR4; experiment: SDF-1-stimulated Akt phosphorylation in MDA-MB-231 cells (western blot); assay type: cell-based; parameters: endogenous in cells; host or cells: MDA-MB-231; settings: for concentration blocking Akt activation: 100 ng/ml SDF-1, 30 minutes; for block of SDF-1-stimulated phosphorylation of Akt: MDA-MB-231 cells, 100 ng/ml SDF-1, 30 min, dose-dependent
# Description: FIG. 2 is an image of a western blot showing phosphorylation of Akt. Incubating MDA-MB-231 cells with 100 ng/ml of SDF-1 for 30 min stimulated phosphorylation of Akt. This activation was blocked with TN14003 or AMD3100 in a dose-dependent manner.
# as §1, with “signaling. Incubating cells with 100 ng/ml of SDF-1 for 30 minutes activated Akt. […] However, the increase in Erk1/2 phosphorylation by SDF-1 was not significant as the increase in Akt phosphorylation.” for “signaling.”
# (§2) WZZL811S was tested in a matrigel invasion assay to determine whether it can inhibit CXCR4/SDF-1-mediated invasion.
# CXCR4 [4] = target: T1, CXCR4; experiment: competition assay using biotin-labeled TN14003 on tumor cells; assay type: binding; parameters: endogenous in cells; probably MDA-MB-231
# Source text: In a separate embodiment, a process for screening potential drug candidates is provided. The process includes providing a labeled peptide-based CXCR4 antagonist that has a detectable signal when bound to a CXCR4 receptor; contacting a CXCR4 receptor with at least one test molecule at a known concentration to form a test sample; contacting the test sample with the peptide-based antagonist; separately, contacting the peptide-based antagonist to a sample not including any test molecule to form a control sample; and comparing the signal from the test sample to the signal from the control sample. In a specific sub-embodiment, the peptide-based antagonist is derived from TN14003 (described in PCT Publication No. WO 04/087068 to Emory University). In a further subembodiment, the antagonist is labeled with a biotin molecule and the signal is elicited when the biotin-labeled antagonist is contacted with a streptavadin-conjugated signal molecule.
# The signal elicited by binding of the CXCR4 antagonist and the receptor can be a fluorescent signal. […]
# The peptide-based antagonist is typically a molecule with high affinity for the receptor. […] In this embodiment, the test compound is incubated with the receptor at varying concentrations and the signal elicited after binding of the labeled antagonist is measured and compared to control, as well as to each other. […]
# [5] = clinical trials; cited from earlier work
# [6] = test system: hypoxia-responsive element (HRE) of VEGF promoter; experiment: HRE-luciferase reporter of VEGF promoter activity in HRE-Luc MB-231 cells; assay type: cell-based, human
# Source text: To determine whether lowering CXCR4 levels might affect VEGF transcription compared to HIF-1α the hypoxia-reporting luciferase/LacZ plasmid from Dr. Van Meir's laboratory was used as a reporter system to detect hypoxia-responsive element (HRE) of VEGF promoter activity (Post, D. E. and Van Meir, E. G. (2001) Gene Ther 8: 1801-1807). The sequence of HIF-1α siRNA was 5′-UUCAAGUUGGAAUUGGUAGdTdT-3′ (SEQ. ID No. 3). Pooled cell clones were created with MDA-MB-231 cells stably transfected with this plasmid (called HRE-Luc MB-231). Unexpectedly, HRE activity in normoxia was moderately high in MDA-MB-231 cells that have high CXCR4 levels in normoxia (FIG. 6, left), which was not observed in other cell lines with low CXCR4 and HIF-1 levels (LN229, U87, 9L, and MDA-MB-435). This moderately high HRE activity in MDA-MB-231 cells was suppressed by CXCR4 siRNA or HIF-1α siRNA. […] As expected, the HRE activity increased 2.5-fold by hypoxia treatment (1% oxygen and 5% CO2 in nitrogen). This elevated HRE activity was again suppressed by siRNA for CXCR4 or HIF-1α (FIG. 6, right).
# HIV = settings: MT-4 cells; read-out: concentration required for 50% protection of HIV-induced cytopathogenicity; cited from earlier work
# MDA-MB-231 cells = experiment: matrigel invasion assay, CXCR4/SDF-1-mediated invasion; assay type: cell-based, human; settings: 2 nM
# Description: Lowering CXCR4 mRNA levels by siRNAs inhibited CXCR4/SDF-1-mediated invasion as measured by a matrigel invasion assay. The CXCR4 ligand, SDF-1 (400 ng/ml) was added to the lower chamber to attract CXCR4-positive breast cancer cells to migrate through the matrigel. The invasion of MDA-MB-231 cells transfected with siRNA1 decreased to 39±4% of the control cells, 51±8% with siRNA2, and only 16±6% with both siRNA1+2 (FIG. 3A).
# as §2
# MT-4 cells = settings: cited from earlier work
# [7] = test system: human umbilical vein endothelial cells (HUVECs); experiment: endothelial capillary tube formation assay; assay type: cell-based; settings: 100 nM; SDF-1 100 ng/ml; 18 hours
# Description: The anti-angiogenic effect of test compounds was measured by analyzing endothelial cell growth and tube formation. The angiogenic effect of SDF-1 (100 ng/ml) on capillary formation by human umbilical vein endothelial cells (HUVECs) was examined in vitro using Matrigel-coated 24-well plates precoated with Matrigel and incubated for 18 hours. The angiogenic effect of SDF-1 was inhibited by either 100 nM TN14003 (peptide-based CXCR4 antagonist) or WZZL811S treatment (FIG. 14a, graph FIG. 14b).
# 686LN cells = experiment: Head & Neck cancer metastasis model, 686LN cells i.v., FDG-PET; assay type: in vivo, mice; settings: 20 mg/mouse/twice weekly, thirty days
# Description: The metastatic 686LN cells were injected intravenously through the tail vein to generate experimental animal models for Head & Neck cancer metastasis, modulated via CXCR4. […] These 3-D projection images show lung metastases well (bone mets and liver mets were apparent in axial section images of mice in control groups, data not shown).
# T1 sequence (P61073 whole entry): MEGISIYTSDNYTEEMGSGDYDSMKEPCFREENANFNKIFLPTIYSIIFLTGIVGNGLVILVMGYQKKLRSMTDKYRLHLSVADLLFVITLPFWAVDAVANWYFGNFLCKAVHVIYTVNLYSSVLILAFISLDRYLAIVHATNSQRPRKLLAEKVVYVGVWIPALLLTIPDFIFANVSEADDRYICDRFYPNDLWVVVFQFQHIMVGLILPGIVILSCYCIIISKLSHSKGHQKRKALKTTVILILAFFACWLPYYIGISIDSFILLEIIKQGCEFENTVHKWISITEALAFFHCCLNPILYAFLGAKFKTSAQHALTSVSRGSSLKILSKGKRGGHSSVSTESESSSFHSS
Molecule,effect on CXCR4 protein levels (CXCR4 [1]),concentration attenuating Erk1/2 phosphorylation (CXCR4 [2]),concentration blocking Akt activation (CXCR4 [3]),block of SDF-1-stimulated phosphorylation of Akt (CXCR4 [3]),concentration needed to compete against biotin-labeled TN14003 (CXCR4 [4]),side effect in clinical study [5],HRE activity ([6]; hypoxia (1% oxygen)),HRE activity ([6]; normoxia),pEC50 (HIV),block of CXCR4/SDF-1 mediated invasion (MDA-MB-231 cells),concentration leading to 50% toxicity (MT-4 cells),angiogenic effect of SDF-1 on capillary tube formation [7],metastasis to organs (686LN cells)
C1=CC(CN2CCCNCCNCCCNCC2)CC=C1CN1CCCNCCNCCCNCC1 (centres unmarked) [AMD3100],did not affect,100 nM,a few nano molar,blocked,10 µM,cardiac-related side effect,–,–,–,–,–,–,–
"HIF-1α siRNA: HIF-1α siRNA, 5′-UUCAAGUUGGAAUUGGUAGdTdT-3′ (SEQ. ID No. 3) (guide UUCAAGUUGGAAUUGGUAGNN; further chemistry not given here)",–,–,–,–,–,–,suppressed,suppressed,–,–,–,–,–
TN14003,did not affect,sub-nano molar,sub-nano molar,blocked,–,–,–,–,9.22,blocked,410 µM,inhibited,failed to metastasize to any organs
